Here are results for 4 compounds from ChEMBL document CHEMBL1201862, “PubChem BioAssay data set” (2004).

Assay [1] addresses T1, Protein disulfide-isomerase (Homo sapiens, UniProt P07237). In words: inhibition of PDI-driven insulin aggregation – biochemical, turbidity, absorbance, cherry-picked samples, dose response (AID 602350). The assay is classed as functional.
In assay [2] the test system is Vero. In words: inhibition of WNV-induced cytopathic effect – cell-based, CPE readout (AID 1621). The class given is functional. The note with it: Chlorocebus sabaeus.
Assay [3] has as its target T1, Protein disulfide-isomerase. In words: inhibition of PDI-mediated insulin reduction – biochemical, turbidity, dry powder samples, set 2, confirmation (AID 652146).
The nature of assay [4]: loss of viability in HeLa cells – cell-based, ATP luminescence, dry powder, cytotoxicity control, dose response (AID 652117). The class given is functional.
Assay [5] has as its target Multidrug resistance protein CDR1 (Candida albicans, UniProt P43071). In words: inhibition of Nile Red efflux via Candida CDR1 – S. cerevisiae AD1-8u, singleplex, Cherry Pick1 hits, dose response (AID 588606). The assay is classed as functional.
For assay [6], the target named is Benomyl/methotrexate resistance protein (Candida albicans, UniProt P28873). In words: Candida albicans Mdr1 pump inhibition curves – singleplex, Cherry Pick1 hits, dose response (AID 588608). The assay is classed as functional.
In assay [7] the target is T2, Ubiquitin-conjugating enzyme E2 N (Homo sapiens, UniProt P61088).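 Note: Dose-response confirmation in a TR-FRET assay detecting UBC13-driven polyubiquitin chain formation, inhibition measured.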
T2 sequence (P61088 whole entry): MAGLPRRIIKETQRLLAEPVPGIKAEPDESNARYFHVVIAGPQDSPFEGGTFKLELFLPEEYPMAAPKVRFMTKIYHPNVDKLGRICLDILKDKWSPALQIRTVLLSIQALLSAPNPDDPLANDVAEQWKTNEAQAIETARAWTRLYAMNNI
The class given is functional.

Assay [8] addresses 26S proteasome non-ATPase regulatory subunit 14 (Homo sapiens, UniProt O00487). The experiment in a line: inhibition of proteasome subunit RPN11 – biochemical, fluorescence polarization, uHTS hits, confirmation (AID 602368). The assay is classed as functional. A general note: In fluorescence polarisation assays a small probe gives low polarisation when free and higher when bound to something large.

For assay [9], the target named is Prothrombin (Bos taurus, UniProt P00735). The experiment in a line: thrombin protease inhibitors – biochemical, fluorescence polarization, uHTS hits, dose response (AID 602369). The class given is functional.
In assay [10] the target is 72 kDa type IV collagenase (Homo sapiens, UniProt P08253). In words: Dose Response validation of uHTS RPN11 inhibitor hits using a MMP-2 Fluorescence assay. The class given is functional.
Assay [11] can be described thus: HEK-293T cell viability reduction – luminescence, B-cell screen hits, cytotoxicity control for BCR NF-kB inhibitor project, dose response (AID 489021).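 Note: HEK-293T cells carrying an NF-kB luciferase reporter; cells exposed to compound for about 14 hours before viability readout.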 The assay is classed as functional, cell-based.
Assay [12] can be described thus: NIH3T3 cell viability loss – ATP luminescence, mouse fibroblasts, counter-screen, dose response (AID 2010).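 Note: cells exposed to compound for about 90 hours before reading.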 The assay is classed as functional, cell-based. (In general: The purpose of a counterscreen is to sort out artefacts and off-target activity.)
Assay [13] can be described thus: Trypanosoma cruzi growth suppression in host cells – NIH3T3 host cells, beta-gal luminescence, confirmation (AID 2044).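 Note: intracellular parasites grown in NIH/3T3 mouse fibroblasts as host cells; luminescent beta-galactosidase reporter signal from transgenic T. cruzi replicating inside host cells; inhibitors lower the luminescence signal.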 The assay is classed as functional, cell-based.
The test system of assay [14] is INS1. In words: INS-1E survival protection against cytokine death – cell-based, luminescence, retest, dose response (AID 449756).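 Note: cell death triggered by IL-1 beta plus TNF-alpha plus IFN-gamma mixture; protective hits raise ATP signal compared with cytokine alone wells.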 The class given is functional. The note with it: Rattus norvegicus.
In assay [15] the target is T3, High affinity choline transporter 1 (Homo sapiens, UniProt Q9GZV3).
T3 sequence (Q9GZV3 whole entry): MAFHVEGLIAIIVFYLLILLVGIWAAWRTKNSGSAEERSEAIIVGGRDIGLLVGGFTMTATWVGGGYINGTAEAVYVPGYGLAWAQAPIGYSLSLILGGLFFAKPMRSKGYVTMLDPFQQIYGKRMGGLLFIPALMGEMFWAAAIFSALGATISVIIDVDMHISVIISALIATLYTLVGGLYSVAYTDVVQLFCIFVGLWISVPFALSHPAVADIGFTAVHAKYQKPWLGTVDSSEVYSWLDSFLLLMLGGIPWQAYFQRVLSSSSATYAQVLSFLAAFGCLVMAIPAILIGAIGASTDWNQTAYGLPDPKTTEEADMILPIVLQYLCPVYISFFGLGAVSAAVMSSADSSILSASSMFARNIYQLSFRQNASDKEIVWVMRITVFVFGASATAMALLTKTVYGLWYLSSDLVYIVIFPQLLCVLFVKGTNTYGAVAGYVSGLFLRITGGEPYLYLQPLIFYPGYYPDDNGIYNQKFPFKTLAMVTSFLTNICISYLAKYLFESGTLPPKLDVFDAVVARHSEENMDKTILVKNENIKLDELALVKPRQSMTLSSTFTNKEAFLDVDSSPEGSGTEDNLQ
In words: human choline transporter potentiators, potency – cell-based, 10-point CRC, membrane potential dye, dose response (AID 602376). The class given is functional.

Activity calls are given as the source filed them.

T1 sequence (P07237 whole entry): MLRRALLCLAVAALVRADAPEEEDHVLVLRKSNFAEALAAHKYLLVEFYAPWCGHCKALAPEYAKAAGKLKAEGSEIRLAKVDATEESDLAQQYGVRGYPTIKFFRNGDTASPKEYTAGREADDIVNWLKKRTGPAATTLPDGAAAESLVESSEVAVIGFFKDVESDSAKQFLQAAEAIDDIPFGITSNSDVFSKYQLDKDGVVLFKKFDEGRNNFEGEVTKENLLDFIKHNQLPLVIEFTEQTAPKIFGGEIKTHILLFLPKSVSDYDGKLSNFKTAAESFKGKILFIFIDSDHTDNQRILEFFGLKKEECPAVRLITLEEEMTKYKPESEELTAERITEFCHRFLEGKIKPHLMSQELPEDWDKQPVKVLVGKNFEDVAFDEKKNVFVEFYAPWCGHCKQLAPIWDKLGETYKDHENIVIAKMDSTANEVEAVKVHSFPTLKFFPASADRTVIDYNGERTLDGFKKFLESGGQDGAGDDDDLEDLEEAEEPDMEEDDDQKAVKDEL
Sequence of Multidrug resistance protein CDR1 (P43071 whole entry, looked up): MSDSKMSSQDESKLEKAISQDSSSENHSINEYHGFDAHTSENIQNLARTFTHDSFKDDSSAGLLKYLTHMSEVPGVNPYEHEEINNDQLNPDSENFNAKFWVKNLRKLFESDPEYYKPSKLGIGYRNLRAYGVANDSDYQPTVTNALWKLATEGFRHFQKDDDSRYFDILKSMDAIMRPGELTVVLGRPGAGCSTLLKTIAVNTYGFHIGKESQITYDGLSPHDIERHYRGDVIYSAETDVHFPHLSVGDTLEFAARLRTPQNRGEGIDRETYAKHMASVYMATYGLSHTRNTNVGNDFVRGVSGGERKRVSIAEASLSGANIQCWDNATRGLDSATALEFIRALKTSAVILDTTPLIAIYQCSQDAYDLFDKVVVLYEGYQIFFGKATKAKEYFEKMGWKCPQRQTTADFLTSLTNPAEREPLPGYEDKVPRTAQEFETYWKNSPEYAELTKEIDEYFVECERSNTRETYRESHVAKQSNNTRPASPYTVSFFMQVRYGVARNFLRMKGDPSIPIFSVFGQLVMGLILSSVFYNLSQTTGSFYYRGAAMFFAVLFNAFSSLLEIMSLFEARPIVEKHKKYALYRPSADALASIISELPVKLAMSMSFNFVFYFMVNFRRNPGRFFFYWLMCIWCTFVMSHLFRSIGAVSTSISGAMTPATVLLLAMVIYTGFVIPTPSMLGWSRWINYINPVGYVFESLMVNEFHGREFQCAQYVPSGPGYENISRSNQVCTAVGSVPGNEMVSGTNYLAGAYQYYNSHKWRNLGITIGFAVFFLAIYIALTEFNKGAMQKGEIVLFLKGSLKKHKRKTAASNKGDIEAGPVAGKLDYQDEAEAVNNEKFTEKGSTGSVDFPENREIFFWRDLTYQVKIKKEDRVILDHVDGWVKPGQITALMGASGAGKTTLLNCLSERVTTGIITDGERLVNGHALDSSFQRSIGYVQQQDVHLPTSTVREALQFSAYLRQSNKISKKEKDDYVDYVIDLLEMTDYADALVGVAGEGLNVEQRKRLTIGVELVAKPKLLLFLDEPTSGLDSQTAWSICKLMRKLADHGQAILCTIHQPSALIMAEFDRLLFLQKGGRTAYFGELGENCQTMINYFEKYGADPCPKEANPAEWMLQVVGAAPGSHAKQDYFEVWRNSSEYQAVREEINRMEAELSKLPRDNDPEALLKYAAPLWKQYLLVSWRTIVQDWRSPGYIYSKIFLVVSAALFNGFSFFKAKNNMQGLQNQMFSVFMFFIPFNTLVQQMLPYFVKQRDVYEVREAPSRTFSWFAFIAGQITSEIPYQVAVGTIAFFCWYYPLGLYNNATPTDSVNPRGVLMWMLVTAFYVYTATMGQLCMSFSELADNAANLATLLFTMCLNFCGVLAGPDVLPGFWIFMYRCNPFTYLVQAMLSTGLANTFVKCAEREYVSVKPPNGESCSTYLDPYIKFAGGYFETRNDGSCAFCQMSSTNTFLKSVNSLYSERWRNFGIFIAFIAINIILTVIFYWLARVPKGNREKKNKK
Sequence of Benomyl/methotrexate resistance protein (P28873 whole entry): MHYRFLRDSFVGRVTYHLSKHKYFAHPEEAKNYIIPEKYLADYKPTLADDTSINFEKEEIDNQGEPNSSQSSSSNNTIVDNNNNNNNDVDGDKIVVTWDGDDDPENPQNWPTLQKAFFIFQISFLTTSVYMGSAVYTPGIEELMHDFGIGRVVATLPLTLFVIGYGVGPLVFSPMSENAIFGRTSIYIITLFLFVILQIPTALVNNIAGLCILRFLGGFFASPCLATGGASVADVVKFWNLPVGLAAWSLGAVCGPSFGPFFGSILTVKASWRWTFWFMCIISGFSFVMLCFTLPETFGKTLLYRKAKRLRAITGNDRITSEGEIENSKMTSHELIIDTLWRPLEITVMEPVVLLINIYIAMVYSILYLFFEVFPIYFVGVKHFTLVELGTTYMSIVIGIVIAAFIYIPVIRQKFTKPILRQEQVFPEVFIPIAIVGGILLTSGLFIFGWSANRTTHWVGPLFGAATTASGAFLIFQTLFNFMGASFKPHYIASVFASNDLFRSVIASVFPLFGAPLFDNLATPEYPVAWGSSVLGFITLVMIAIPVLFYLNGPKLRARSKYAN
Sequence of 26S proteasome non-ATPase regulatory subunit 14 (O00487 whole entry): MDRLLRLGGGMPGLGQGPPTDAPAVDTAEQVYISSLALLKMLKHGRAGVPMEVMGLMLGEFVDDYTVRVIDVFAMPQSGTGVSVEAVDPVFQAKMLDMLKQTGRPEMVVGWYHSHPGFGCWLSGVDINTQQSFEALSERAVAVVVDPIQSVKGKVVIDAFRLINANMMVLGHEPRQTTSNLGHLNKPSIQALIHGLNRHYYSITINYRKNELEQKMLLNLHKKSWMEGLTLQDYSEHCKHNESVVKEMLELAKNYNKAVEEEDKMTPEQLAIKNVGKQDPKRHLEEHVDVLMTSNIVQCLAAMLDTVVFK
Sequence of 72 kDa type IV collagenase (P08253 whole entry): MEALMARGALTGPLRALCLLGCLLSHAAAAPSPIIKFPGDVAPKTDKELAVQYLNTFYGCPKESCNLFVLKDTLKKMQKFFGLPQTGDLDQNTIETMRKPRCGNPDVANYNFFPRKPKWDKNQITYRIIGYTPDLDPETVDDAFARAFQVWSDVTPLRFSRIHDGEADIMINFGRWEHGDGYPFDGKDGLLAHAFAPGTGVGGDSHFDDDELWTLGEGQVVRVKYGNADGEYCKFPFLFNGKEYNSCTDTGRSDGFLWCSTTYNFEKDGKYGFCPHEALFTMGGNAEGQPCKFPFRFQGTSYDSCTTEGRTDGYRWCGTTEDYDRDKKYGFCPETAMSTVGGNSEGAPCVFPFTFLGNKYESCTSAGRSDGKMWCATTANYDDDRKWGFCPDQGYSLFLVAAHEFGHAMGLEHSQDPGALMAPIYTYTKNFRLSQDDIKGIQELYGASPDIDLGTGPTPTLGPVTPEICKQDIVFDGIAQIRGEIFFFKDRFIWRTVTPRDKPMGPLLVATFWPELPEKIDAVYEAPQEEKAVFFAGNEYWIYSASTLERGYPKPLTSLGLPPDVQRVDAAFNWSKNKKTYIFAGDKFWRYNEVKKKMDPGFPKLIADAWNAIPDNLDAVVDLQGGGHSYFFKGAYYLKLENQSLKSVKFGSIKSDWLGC

What is called AC50 is the midpoint of the concentration-response curve, whichever way the signal moves. A word on the IC50: it is the point on the concentration scale where inhibition reaches its midpoint. On to `CCOC(=O)c1c(CN2CCN(CCO)CC2)n(-c2ccccc2)c2cc(Br)c(O)cc12`, for which the AC50 in assay [1] was 0.61 µM (active); in assay [3] it was 2 µM (active); in assay [4] it was > 52 µM (inactive). Moreover, the IC50 in assay [2] was 20.2 µM (active).

The term EC50 denotes the concentration needed to bring the measured effect to its halfway point. For the compound `CC(C)C(=O)N1CCC2(CC1)Oc1ccc(F)cc1C(=O)C21CC(c2ccc(Cl)cc2)=NO1` (stereo not given), the figures for the EC50 in assay [5] and in assay [6] were 12.6 µM (active) and 31.7 µM (active), respectively.

With `CC(=O)n1cc([C@H]2C=C(C(=O)Nc3ccccc3)O[C@@H](OCc3ccc(CO)cc3)C2)c2ccccc21`, the IC50 was > 20 µM (inactive) in assay [7], 65.6 µM (active) in assay [8], 80.6 µM (active) in assay [9] and > 100 µM (inactive) in [10].

In the case of `CCOc1ccc(-c2cn3c([n+]2-c2ccccc2)CCCCC3)cc1`, the IC50 in assay [11] is > 80 µM (inactive). In addition, the EC50 in assay [12] is 15.1 µM (active); in assay [13], 0.463 µM (active); in assay [15], 6.83 µM (active). Besides, the AC50 in [14] was 0.998 µM (active).
